Values after ≈ are worked out from the molar mass of the structure shown. Like-named read-outs stand apart in the source and are kept apart here. No end group written: not given here.
Assays:
[1] = tested on: Salmonella choleraesuis Strand 75
Protocol: (§3) The minimal inhibitory concentration (MIC) and minimal bactericidal concentration (MBC) were obtained to determine bacteriostatic and bactericidal activities, respectively, for each strain of the bacteria listed above. […] The lowest concentration which inhibited bacterial growth was deemed the MIC. The MBC was determined by spreading 100 μl from each tube of the MIC on an LB or TSA plate and incubating overnight.

[2] = tested on: Salmonella choleraesuis Strand 74
Protocol: as §3

[3] = tested on: Aerococcus viridian; experiment: Bacteriostatic (MIC) and bactericidal (MBC) analysis against Aerococcus viridian; type: cell-based
Protocol: (§1) Monodoncin was tested for its antibacterial activities against various Gram (−) bacteria, including E. coli, Vibrio harveyi, Vibrio alginolyticus, and Salmonella cholesaesuis, various Gram (+) bacteria, such as Aerococcus viridian, and filamentous fungi, such as Fusarium pisi.

[4] = tested on: E. coli; experiment: microbe, parasite or virus in culture
Protocol: as §1
(§2) The bacteria were cultured under conventional methods. For example, E. coli strain was cultured in LB, 37° C. The marine microorganisms that are pathogenic for shrimp, such as Vibrio harveyi and Vibrio alginolyticus, were cultured in trypticase soy broth/agar (1.5% NaCl), 25° C.

[5] = tested on: Vibrio harveyi; experiment: microbe, parasite or virus in culture
Protocol: as §1, §2

[6] = tested on: Vibrio alginolyticus; experiment: microbe, parasite or virus in culture
Protocol: as §1, §2

[7] = tested on: Fusarium pisi; experiment: MIC and MBC analysis against the filamentous fungus Fusarium pisi; type: cell-based
Protocol: as §1

[8] = tested on: Fusarium oxysporum; experiment: MIC and MBC analysis against the filamentous fungus Fusarium oxysporum; type: cell-based
[9] = tested on: E. coli; experiment: SEM analysis of interaction of monodoncin with E. coli; type: cell-based, Escherichia coli; settings: monodoncin 10 μM, 12 hrs of treatment
Protocol: Monodoncin at […] was used to treat E. Coli and Vibrios, and the pathogens prior to and after the treatment were monitored under Scanning Electron Microscope (SEM) and Atomic Force Microscope (AFM).
Scanning electron microscopy (SEM) was conducted by incubating […] of E. coli (109 C.F.U./ml) with or without 50 μl monodoncin (10000 μM) at 37° C. for 1 h, 3 h, 6 h, and 12 h. Three milliliters of each of the bacterial suspensions (at various time frames) were fixed by adding 1 ml of 6% glutaraldehyde in 0.1 M sodium cacodylate trihydrate buffer (pH 6.8). After fixation for 1 h at […], the bacterial suspensions were pelleted, the used fixative was removed, 2 ml of the new fixative were added, and the bacteria were incubated for 5 min at […] Two additional 5-min fixations were conducted, followed by addition of 2 ml of 1% osmium tetroxide in 0.1 M cacodylate buffer, and the fixation was allowed to proceed for 30 min at […] The osmium tetroxide was removed, and the bacterial suspensions were washed in 2 ml of 0.1 M cacodylate buffer. […] The SEM mounts were then sputter coated with gold (Edwards S150A sputter coater; Edwards High Vacuum, Crawley, West Sussex, England) and analyzed on a Hitachi H300-3010 scanning image accessory electron microscope.

[10] = tested on: Vibrio harveyi; experiment: Mortality of tiger shrimp after Vibrio harveyi challenge (FIG. 5); type: in vivo, Penaeus monodon
Protocol: (-⋄-): PBS control (negative control); (-▪-): Vibrio harveyi challenge (positive control); (-▴-): cecropin+Vibrio harveyi (non-monodoncin treatment group); (-●-): monodoncin+Vibrio harveyi (monodoncin treatment group).
Vibrio harveyi is a gram-negative marine bacterium that is in the natural living environment of the tiger shrimp. A suspension of the microorganism […] containing 10^5 cells was used for each tiger shrimp. The suspension was injected into the shrimp abdominal muscle. Hemocytes were collected as Example 1 at different times (from 0 to 72 hours) post-injection. Unchallenged animals were used as controls.

Q: For `CC1(C)S[C@@H]2[C@H](NC(=O)[C@H](N)c3ccc(O)cc3)C(=O)N2[C@H]1C(=O)O` [Amoxicillin, amoxicillin], which MIC ([1]; Strand 75, amoxicillin alone) is on record?
A: >64 µg

Q: What about the MIC ([2]; Strand 74, amoxicillin alone) of the same molecule?
A: >64 µg

Q: Which MBC [3] does the source give for `CN(C)[C@@H]1C(O)=C(C(N)=O)C(=O)[C@@]2(O)C(O)=C3C(=O)c4c(O)cccc4[C@@](C)(O)[C@H]3C[C@@H]12` [Tetracycline, tetracycline] here?
A: 300 µM (≈ 133 µg/mL)

Q: And the MIC [3]?
A: 30 µM (≈ 13.3 µg/mL)

Q: What about the MBC ([4]; Escherichia coli) of the same molecule?
A: 403 µM (≈ 179 µg/mL)

Q: What about the MBC ([5]; Vibrio harveyi) of the same molecule?
A: 403 µM (≈ 179 µg/mL)

Q: And the MIC ([5]; Vibrio harveyi)?
A: 6.3 µM (≈ 2.8 µg/mL)

Q: What about the MBC ([6]; Vibrio alginolyticus) of the same molecule?
A: > 202 µM

Q: What about the MIC ([6]; Vibrio alginolyticus) of the same molecule?
A: 25.2 µM (≈ 11.2 µg/mL)

Q: What about the MBC ([7]; Fusarium vanettenii) of the same molecule?
A: > 500 µM

Q: What about the MIC ([7]; Fusarium vanettenii) of the same molecule?
A: 300 µM (≈ 133 µg/mL)

Q: What about the MBC [8] of the same molecule?
A: 500 µM (≈ 222 µg/mL)

Q: What about the MIC [8] of the same molecule?
A: 500 µM (≈ 222 µg/mL)

Q: What does the source list for Cecropin?
A: MBC ([1]; Strand 75, peptide alone): >31.2 mg/L; MIC ([1]; Strand 75, peptide alone): 31.2 mg/L; MBC ([2]; Strand 74, peptide alone): 31.2 mg/L; MIC ([2]; Strand 74, peptide alone): 16.5 mg/L

Q: With “GWGSFFKKAAHVGKHVGKAALTHYL-NH2 (C-terminus assumed) [Pleurocidin, pleurocidin]” as the molecule, how does the MBC [4] read?
A: 500 µM

Q: What about the MIC [4] of the same molecule?
A: 450 µM

Q: What about the MBC [5] of the same molecule?
A: 200 µM

Q: And the MIC [5]?
A: 200 µM

Q: And the MBC [6]?
A: >500 µM

Q: What about the MIC [6] of the same molecule?
A: 500 µM

Q: For “QGYQGGYTRPFPRPPYGGGYHPVPVCTSCHRLSPLQARACCRQLGRCCDAKQTYG (cysteines drawn unpaired) [Monodoncin]”, which “number of bacteria in the culture” value [9] is on record?
A: significantly reduced

Q: What about the “mortality rate relative to that in the untreated group” value [10] of the same molecule?
A: 40%

Q: And the “reduction of tiger shrimp mortality” value [10]?
A: at least 40%

Q: Which results are given for magainins?
A: MBC [3]: 5 µM; MIC [3]: 1 µM; MBC ([4]; E. coli): 70 µM; MIC ([4]; E. coli): 40 µM; MBC ([5]; Vibrio harveyi): 30 µM; MIC ([5]; Vibrio harveyi): 30 µM; MBC ([6]; Vibrio alginolyticus): 300 µM; MIC ([6]; Vibrio alginolyticus): 150 µM; MBC [7]: 1 µM; MIC [7]: 1 µM; MBC [8]: 1 µM; MIC [8]: 1 µM
